The assay deals with androgen receptor (AR) in LNCaP and/or VCaP cells. Description: Androgen Receptor ELISA assay (AR degradation). The class given is cell-based. The following applies: degradation of AR ELISA in LNCaP and/or VCaP cells; Table 2C; read-out: DC50 Code*. In outline: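 VCaP cells grown ≥3 days, then treated 5 h with compound in media containing 1 nM R1881 (10× stock). Cells lysed and AR quantified by sandwich ELISA (mouse AR detection Ab, HRP anti-mouse, TMB). DC50 and Dmax derived from AR degradation.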
(In general: In an ELISA, binding on a coated surface is turned into a signal by an enzyme label.)

SMILES strings stand for the structures.

A word on the DC50: it is the concentration at which degradation of the target reaches its halfway point.

As to `COCCN(CC1CCN(c2ccc(C(=O)N[C@H]3C(C)(C)[C@H](Oc4ccc(C#N)c(OC)c4)C3(C)C)cc2)CC1)[C@H]1C[C@H](Oc2cc(OC)c3c(c2)C(=O)N(C2CCC(=O)NC2=O)C3=O)C1` (some centres unmarked) [compound 94, N-((1r,3r)-3-(4-cyano-3-methoxyphenoxy)-2,2,4,4-tetramethylcyclobutyl)-4-(4-((((1r,3r)-3-((2-(2,6-dioxopiperidin-3-yl)-7-methoxy-1,3-dioxoisoindolin-5-yl)oxy)cyclobutyl)(2-methoxyethyl)amino)methyl)piperidin-1-yl)benzamide], the DC50 was under 1 nM.

Regarding `CC(C)N(CC1CCN(c2ncc(C(=O)N[C@H]3C(C)(C)[C@H](Oc4ccc(C#N)c(Cl)c4)C3(C)C)cn2)CC1)[C@H]1C[C@H](Oc2ccc3c(c2)C(=O)N(C2CCC(=O)NC2=O)C3)C1` (some centres unmarked) [compound 95, N-((1r,3r)-3-(3-chloro-4-cyanophenoxy)-2,2,4,4-tetramethylcyclobutyl)-2-(4-((((1r,3r)-3-((2-(2,6-dioxopiperidin-3-yl)-3-oxoisoindolin-5-yl)oxy)cyclobutyl) (isopropyl)amino)methyl)piperidin-1-yl)pyrimidine-5-carboxamide], the DC50 was under 1 nM.

As to `COCCN(CC1CCN(c2ccc(C(=O)N[C@H]3C(C)(C)[C@H](Oc4cc(C)c(C#N)c(C)c4)C3(C)C)cc2)CC1)[C@H]1C[C@H](Oc2ccc3c(c2)C(=O)N(C2CCC(=O)NC2=O)C3=O)C1` (some centres unmarked) [compound 96, N-((1r,3r)-3-(4-cyano-3,5-dimethylphenoxy)-2,2,4,4-tetramethylcyclobutyl)-4-(4-((((1r,3r)-3-((2-(2,6-dioxopiperidin-3-yl)-1,3-dioxoisoindolin-5-yl)oxy)cyclobutyl)(2-methoxyethyl)amino)methyl)piperidin-1-yl)benzamide], the 50% degradation concentration (DC50) is under 1 nM.

`Cc1cc(O[C@H]2C(C)(C)[C@H](NC(=O)c3cnc(N4CCC(CN(CC(F)F)[C@H]5C[C@H](Oc6ccc7c(c6)CN(C6CCC(=O)NC6=O)C7=O)C5)CC4)nc3)C2(C)C)cc(C)c1C#N` (some centres unmarked) [compound 97, N-((1r,3r)-3-(4-cyano-3,5-dimethylphenoxy)-2,2,4,4-tetramethylcyclobutyl)-2-(4-(((2,2-difluoroethyl)((1r,3r)-3-((2-(2,6-dioxopiperidin-3-yl)-1-oxoisoindolin-5-yl)oxy)cyclobutyl)amino)methyl)piperidin-1-yl)pyrimidine-5-carboxamide]: the DC50 is under 1 nM.

Regarding `COc1cc(O[C@H]2C(C)(C)[C@H](NC(=O)c3cnc(N4CCC(CN(C(C)C)[C@H]5C[C@H](Oc6cc(OC)c7c(c6)C(=O)N(C6CCC(=O)NC6=O)C7=O)C5)CC4)cn3)C2(C)C)ccc1C#N` (some centres unmarked) [compound 98, N-((1r,3r)-3-(4-cyano-3-methoxyphenoxy)-2,2,4,4-tetramethylcyclobutyl)-5-(4-((((1r,3r)-3-((2-(2,6-dioxopiperidin-3-yl)-7-methoxy-1,3-dioxoisoindolin-5-yl)oxy)cyclobutyl) (isopropyl)amino)methyl)piperidin-1-yl)pyrazine-2-carboxamide], the DC50 was under 1 nM.

Consider `Cc1cc(O[C@H]2C(C)(C)[C@H](NC(=O)c3cnc(N4CCC(CN5CC(Oc6ccc7c(c6)C(=O)N(C6CCC(=O)NC6=O)C7=O)C5)CC4)cn3)C2(C)C)cc(C)c1C#N` (some centres unmarked) [compound 99, N-((1r,3r)-3-(4-cyano-3,5-dimethylphenoxy)-2,2,4,4-tetramethylcyclobutyl)-5-(4-((3-((2-(2,6-dioxopiperidin-3-yl)-1,3-dioxoisoindolin-5-yl)oxy)azetidin-1-yl)methyl)piperidin-1-yl)pyrazine-2-carboxamide], for which the DC50 is under 1 nM.

For the compound `COCCN(CC1CCN(c2ccc(C(=O)N[C@H]3C(C)(C)[C@H](Oc4ccc(C#N)c(OC)c4)C3(C)C)nn2)CC1)[C@H]1C[C@H](Oc2cc(OC)c3c(c2)C(=O)N(C2CCC(=O)NC2=O)C3=O)C1` (some centres unmarked) [compound 100, N-((1r,3r)-3-(4-cyano-3-methoxyphenoxy)-2,2,4,4-tetramethylcyclobutyl)-6-(4-((((1r,3r)-3-((2-(2,6-dioxopiperidin-3-yl)-7-methoxy-1,3-dioxoisoindolin-5-yl)oxy)cyclobutyl)(2-methoxyethyl)amino)methyl)piperidin-1-yl)pyridazine-3-carboxamide], the DC50 was under 1 nM.

With `COCCN(CC1CCN(c2ccc(C(=O)NC3C(C)(C)C(Oc4ccc(C#N)c(OC)c4)C3(C)C)cc2)CC1)C1CC(Oc2ccc3c(c2)C(=O)N([C@@H]2CCC(=O)NC2=O)C3=O)C1` (some centres unmarked) [compound 101, N-((1r,3r)-3-(4-cyano-3-methoxyphenoxy)-2,2,4,4-tetramethylcyclobutyl)-4-(4-((((1r,3r)-3-((2-(2,6-dioxopiperidin-3-yl)-1,3-dioxoisoindolin-5-yl)oxy)cyclobutyl)(2-methoxyethyl)amino)methyl)piperidin-1-yl)benzamide], the DC50 is under 1 nM.

For `COc1cc(O[C@H]2C(C)(C)[C@H](NC(=O)c3ccc(N4CCC(CN(C(C)C)[C@H]5C[C@H](Oc6cc(OC)c7c(c6)C(=O)N(C6CCC(=O)NC6=O)C7=O)C5)CC4)nn3)C2(C)C)ccc1C#N` (some centres unmarked) [compound 102, N-((1r,3r)-3-(4-cyano-3-methoxyphenoxy)-2,2,4,4-tetramethylcyclobutyl)-6-(4-((((1r,3r)-3-((2-(2,6-dioxopiperidin-3-yl)-7-methoxy-1,3-dioxoisoindolin-5-yl)oxy)cyclobutyl) (isopropyl)amino)methyl)piperidin-1-yl)pyridazine-3-carboxamide], the DC50 was under 1 nM.

Turning to `CC(C)Oc1cc(N2CCN(CC3CCN(c4ncc(C(=O)N[C@H]5C(C)(C)[C@H](Oc6ccc(C#N)c(Cl)c6)C5(C)C)cn4)CC3)CC2)cc2c1C(=O)N(C1CCC(=O)NC1=O)C2=O` (some centres unmarked) [compound 103, N-((1r,3r)-3-(3-chloro-4-cyanophenoxy)-2,2,4,4-tetramethylcyclobutyl)-2-(4-((4-(2-(2,6-dioxopiperidin-3-yl)-7-isopropoxy-1,3-dioxoisoindolin-5-yl)piperazin-1-yl)methyl)piperidin-1-yl)pyrimidine-5-carboxamide], the DC50 was under 1 nM.

Take `Cc1cc(O[C@H]2C(C)(C)[C@H](NC(=O)c3ccc(N4CCC(CN(C(C)C)[C@H]5C[C@H](Oc6ccc7c(c6)C(=O)N(C6CCC(=O)NC6=O)C7=O)C5)CC4)cc3)C2(C)C)cc(C)c1C#N` (some centres unmarked) [compound 104, N-((1r,3r)-3-(4-cyano-3,5-dimethylphenoxy)-2,2,4,4-tetramethylcyclobutyl)-4-(4-((((1r,3r)-3-((2-(2,6-dioxopiperidin-3-yl)-1,3-dioxoisoindolin-5-yl)oxy)cyclobutyl)(isopropyl)amino)methyl)piperidin-1-yl)benzamide]: the DC50 was under 1 nM.

Regarding `COCCN(CC1CCN(c2ccc(C(=O)N[C@H]3C(C)(C)[C@H](Oc4ccc(C#N)c(Cl)c4)C3(C)C)cc2)CC1)[C@H]1C[C@H](Oc2cc(OC)c3c(c2)C(=O)N(C2CCC(=O)NC2=O)C3=O)C1` (some centres unmarked) [compound 105, N-((1r,3r)-3-(3-chloro-4-cyanophenoxy)-2,2,4,4-tetramethylcyclobutyl)-4-(4-((((1r,3r)-3-((2-(2,6-dioxopiperidin-3-yl)-7-methoxy-1,3-dioxoisoindolin-5-yl)oxy)cyclobutyl)(2-methoxyethyl)amino)methyl)piperidin-1-yl)benzamide], the DC50 was under 1 nM.

Turning to `COCCN(CC1CCN(c2ccc(C(=O)N[C@H]3C(C)(C)[C@H](Oc4cc(C)c(C#N)c(C)c4)C3(C)C)cc2)CC1)[C@H]1C[C@H](Oc2cc(OC)c3c(c2)C(=O)N(C2CCC(=O)NC2=O)C3=O)C1` (some centres unmarked) [compound 106, N-((1r,3r)-3-(4-cyano-3,5-dimethylphenoxy)-2,2,4,4-tetramethylcyclobutyl)-4-(4-((((1r,3r)-3-((2-(2,6-dioxopiperidin-3-yl)-7-methoxy-1,3-dioxoisoindolin-5-yl)oxy)cyclobutyl)(2-methoxyethyl)amino)methyl)piperidin-1-yl)benzamide], the DC50 was under 1 nM.

Consider `CC1(C)[C@H](NC(=O)c2ccc(N3CC4CN(CC5CCN(c6ccc7c(c6)C(=O)N(C6CCC(=O)NC6=O)C7=O)CC5)CC4C3)cc2)C(C)(C)[C@H]1Oc1ccc(C#N)c(Cl)c1` (some centres unmarked) [compound 107, N-((1r,3r)-3-(3-chloro-4-cyanophenoxy)-2,2,4,4-tetramethylcyclobutyl)-4-(5-((1-(2-(2,6-dioxopiperidin-3-yl)-1,3-dioxoisoindolin-5-yl)piperidin-4-yl)methyl)hexahydropyrrolo [3,4-c]pyrrol-2(1H)-yl)benzamide], for which the DC50 was under 1 nM.

For `CC(C)N(CC1CCN(c2ncc(C(=O)N[C@H]3C(C)(C)[C@H](Oc4ccc(C#N)c(C#N)c4)C3(C)C)cn2)CC1)[C@H]1C[C@H](Oc2ccc3c(c2)C(=O)N(C2CCC(=O)NC2=O)C3=O)C1` (some centres unmarked) [compound 108, N-((1r,3r)-3-(3,4-dicyanophenoxy)-2,2,4,4-tetramethylcyclobutyl)-2-(4-((((1r,3r)-3-((2-(2,6-dioxopiperidin-3-yl)-1,3-dioxoisoindolin-5-yl)oxy)cyclobutyl) (isopropyl)amino)methyl)piperidin-1-yl)pyrimidine-5-carboxamide], the DC50 was under 1 nM.

For `Cc1cc(O[C@H]2C(C)(C)[C@H](NC(=O)c3cnc(N4CCC(CN(CC(F)F)[C@H]5C[C@H](Oc6ccc7c(c6)C(=O)N(C6CCC(=O)NC6=O)C7)C5)CC4)nc3)C2(C)C)cc(C)c1C#N` (some centres unmarked) [compound 109, N-((1r,3r)-3-(4-cyano-3,5-dimethylphenoxy)-2,2,4,4-tetramethylcyclobutyl)-2-(4-(((2,2-difluoroethyl)((1r,3r)-3-((2-(2,6-dioxopiperidin-3-yl)-3-oxoisoindolin-5-yl)oxy)cyclobutyl)amino)methyl)piperidin-1-yl)pyrimidine-5-carboxamide], the DC50 is under 1 nM.

For the compound `Cc1cc(O[C@H]2C(C)(C)[C@H](NC(=O)c3ccc(N4CCC(CN(C(C)C)[C@H]5C[C@H](Oc6ccc7c(c6)C(=O)N(C6CCC(=O)NC6=O)C7=O)C5)CC4)nn3)C2(C)C)cc(C)c1C#N` (some centres unmarked) [compound 110, N-((1r,3r)-3-(4-cyano-3,5-dimethylphenoxy)-2,2,4,4-tetramethylcyclobutyl)-6-(4-((((1r,3r)-3-((2-(2,6-dioxopiperidin-3-yl)-1,3-dioxoisoindolin-5-yl)oxy)cyclobutyl) (isopropyl)amino)methyl)piperidin-1-yl)pyridazine-3-carboxamide], the DC50 was under 1 nM.

Values taken from patent US20260053932A1, “COMPOUNDS AND METHODS FOR THE TARGETED DEGRADATION OF ANDROGEN RECEPTOR AND ASSOCIATED METHODS OF USE” (Arvinas Operations, Inc., priority 2020, published 2026).
